Molecular target: human TYK2 (JH2domain-pseudokinase) (Homo sapiens (Human), UniProt P29597)
Test: TYK2 JH2 Domain Binding Assay (KINOMEscan, DiscoveRx)
Conditions: 11-point dilution, duplicate
Summary of the method: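 Kd from duplicate 11-point 3-fold dilutions starting at 30,000 nM, fitted by Hill equation with slope fixed at −1. Compounds (final 0.9% DMSO) displace DNA-tagged HEK293-expressed TYK2 JH2 fusion (<0.1 nM) from ligand-coated beads over 1 h at room temperature; eluted kinase read by qPCR.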

Sequence of human TYK2 (JH2domain-pseudokinase) (P29597 556-888): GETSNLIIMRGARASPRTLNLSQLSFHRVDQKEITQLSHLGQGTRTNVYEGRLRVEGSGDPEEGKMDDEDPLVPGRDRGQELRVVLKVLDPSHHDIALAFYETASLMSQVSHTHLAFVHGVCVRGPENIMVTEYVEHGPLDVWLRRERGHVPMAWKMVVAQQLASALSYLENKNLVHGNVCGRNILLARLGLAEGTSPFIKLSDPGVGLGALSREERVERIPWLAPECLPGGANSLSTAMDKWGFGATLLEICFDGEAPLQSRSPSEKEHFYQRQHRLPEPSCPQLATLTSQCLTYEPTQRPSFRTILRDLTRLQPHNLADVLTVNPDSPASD

| Structure (SMILES) | Kd |
| --- | --- |
| COc1c(Nc2cc(NC(=O)C3CC3)nc3[nH]c(C)nc23)cccc1-n1nc(C)nc1C [I-149, N-(7-((3-(3,5-dimethyl-1H-1,2,4-triazol-1-yl)-2-methoxyphenyl)amino)-2-methyl-3H-imidazo[4,5-b]pyridin-5-yl)cyclopropanecarboxamide] | > 10 nM |
| COCc1ccc(Nc2cc(NC(=O)C3CC3)nc3[nH]c(C)nc23)c(N(C)S(C)(=O)=O)c1 [I-150, N-(7-((4-(methoxymethyl)-2-(N-methylmethylsulfonamido)phenyl)amino)-2-methyl-3H-imidazo[4,5-b]pyridin-5-yl)cyclopropanecarboxamide] | 0.1 to 0.5 nM |
| COc1cc(-c2cncn2C)ccc1Nc1cc(NC(=O)C2CC2)nc2[nH]c(C)nc12 [I-151, N-(7-((2-methoxy-4-(1-methyl-1H-imidazol-5-yl)phenyl)amino)-2-methyl-3H-imidazo[4,5-b]pyridin-5-yl)cyclopropanecarboxamide] | 1 to 10 nM |
| COc1cc(-c2cncn2C)ccc1Nc1cc(Nc2cnc(C)c(C)n2)nc2[nH]c(C)nc12 [I-152, N5-(5,6-dimethylpyrazin-2-yl)-N7-(2-methoxy-4-(1-methyl-1H-imidazol-5-yl)phenyl)-2-methyl-3H-imidazo[4,5-b]pyridine-5,7-diamine] | 1 to 10 nM |
| Cc1nc2c(Nc3ccc(-c4cncn4C)cc3N(C)S(C)(=O)=O)cc(NC(=O)C3CC3)nc2[nH]1 [I-153, N-(2-methyl-7-((4-(1-methyl-1H-imidazol-5-yl)-2-(N-methylmethylsulfonamido)phenyl)amino)-3H-imidazo[4,5-b]pyridin-5-yl)cyclopropanecarboxamide] | 0.1 to 0.5 nM |
| Cc1ncc(Nc2cc(Nc3ccc(-c4cncn4C)cc3N(C)S(C)(=O)=O)c3nc(C(F)F)[nH]c3n2)nc1C [I-154, N-(2-((2-(difluoromethyl)-5-((5,6-dimethylpyrazin-2-yl)amino)-3H-imidazo[4,5-b]pyridin-7-yl)amino)-5-(1-methyl-1H-imidazol-5-yl)phenyl)-N-methylmethanesulfonamide] | 0.1 to 0.5 nM |
| COc1c(Nc2cc(NC(=O)C3CC3)nc3[nH]c(C(F)F)nc23)cccc1-c1nnn(C)c1C [I-155, N-(2-(difluoromethyl)-7-((3-(1,5-dimethyl-1H-1,2,3-triazol-4-yl)-2-methoxyphenyl)amino)-3H-imidazo[4,5-b]pyridin-5-yl)cyclopropanecarboxamide] | 1 to 10 nM |
| Cc1nc2c(Nc3ccc(-c4cn(C)cn4)cc3N(C)S(C)(=O)=O)cc(NC(=O)C3CC3)nc2[nH]1 [I-156, N-(2-methyl-7-((4-(1-methyl-1H-imidazol-4-yl)-2-(N-methylmethylsulfonamido)phenyl)amino)-3H-imidazo[4,5-b]pyridin-5-yl)cyclopropanecarboxamide] | 0.1 to 0.5 nM |
| COc1c(Nc2cc(NC(=O)C3CC3)nc3[nH]c(C)nc23)cccc1-c1c(C)nnn1C [I-157, N-(7-((3-(1,4-dimethyl-1H-1,2,3-triazol-5-yl)-2-methoxyphenyl)amino)-2-methyl-3H-imidazo[4,5-b]pyridin-5-yl)cyclopropanecarboxamide] | 1 to 10 nM |
| COc1c(Nc2cc(NC(=O)C3CC3)nc3[nH]c(C)nc23)cccc1-c1nnn(C)c1C [I-158, N-(7-((3-(1,5-dimethyl-1H-1,2,3-triazol-4-yl)-2-methoxyphenyl)amino)-2-methyl-3H-imidazo[4,5-b]pyridin-5-yl)cyclopropanecarboxamide] | > 10 nM |
| CS(=O)(=O)c1ccccc1Nc1cc(NC(=O)C2CC2)nc2[nH]c(C(F)F)nc12 [I-159] | 0.1 to 0.5 nM |
| COc1cc(-c2cncn2C)ccc1Nc1cc(Nc2cccc(C#N)n2)nc2[nH]c(C)nc12 [I-160, 6-((7-((2-methoxy-4-(1-methyl-1H-imidazol-5-yl)phenyl)amino)-2-methyl-3H-imidazo[4,5-b]pyridin-5-yl)amino)picolinonitrile] | 1 to 10 nM |
| COc1cc(-c2nc(C)nn2C)ccc1Nc1cc(NC(=O)C2CC2)nc2[nH]c(C(F)F)nc12 [I-161, N-(2-(difluoromethyl)-7-((4-(1,3-dimethyl-1H-1,2,4-triazol-5-yl)-2-methoxyphenyl)amino)-3H-imidazo[4,5-b]pyridin-5-yl)cyclopropanecarboxamide] | 1 to 10 nM |

— patent US10647713B2 (Nimbus Lakshmi, Inc., priority 2016, dated 2020)
